In experiment [1] the target is T1, follicle-stimulating hormone (FSH) receptor (Rattus norvegicus, UniProt P20395).
T1 construct: endogenous in cells; host or cells: primary rat granulosa cells
T1 sequence (P20395 18-692): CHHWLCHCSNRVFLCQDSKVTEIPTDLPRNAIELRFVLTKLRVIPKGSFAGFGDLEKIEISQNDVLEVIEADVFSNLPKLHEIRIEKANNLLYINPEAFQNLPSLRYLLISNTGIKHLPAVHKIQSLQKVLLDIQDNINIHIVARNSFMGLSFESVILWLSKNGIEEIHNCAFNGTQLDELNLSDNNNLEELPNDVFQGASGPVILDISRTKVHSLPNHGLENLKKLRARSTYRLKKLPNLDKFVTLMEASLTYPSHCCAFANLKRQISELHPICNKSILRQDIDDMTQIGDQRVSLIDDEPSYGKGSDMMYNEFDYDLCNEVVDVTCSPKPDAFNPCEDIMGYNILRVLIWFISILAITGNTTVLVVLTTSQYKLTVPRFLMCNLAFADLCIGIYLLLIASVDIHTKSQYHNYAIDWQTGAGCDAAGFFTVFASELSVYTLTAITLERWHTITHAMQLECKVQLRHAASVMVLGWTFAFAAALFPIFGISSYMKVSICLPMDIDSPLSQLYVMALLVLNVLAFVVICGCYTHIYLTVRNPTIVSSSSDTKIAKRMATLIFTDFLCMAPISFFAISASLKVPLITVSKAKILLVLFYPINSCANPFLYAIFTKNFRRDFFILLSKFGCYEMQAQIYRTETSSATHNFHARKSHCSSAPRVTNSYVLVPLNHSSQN
Kind of experiment: Rat granulosa EC50 FSH (Assay B). The experiment is classed as cell-based. Conditions: for EC50: rat granulosa cells, read-out: Assay B: Rat granulosa EC50 FSH. The procedure:
Rat Granulosa EC50 FSH (Assay B)
The assay was performed pursuant to the teaching of Yanofsky et al. (2006) Allosteric activation of the follicle-stimulating hormone (FSH) receptor by selective, nonpeptide agonists (JBC 281(19): 13226-13233, which is incorporated by reference in the disclosure of the invention).

A further experiment concerns the target T2, FSHR (Homo sapiens, UniProt P23945).
T2 construct: expressed in transfected cells; host or cells: CHO (Cho-FSHR-LUC-1-1-43)
T2 sequence (P23945 18-695): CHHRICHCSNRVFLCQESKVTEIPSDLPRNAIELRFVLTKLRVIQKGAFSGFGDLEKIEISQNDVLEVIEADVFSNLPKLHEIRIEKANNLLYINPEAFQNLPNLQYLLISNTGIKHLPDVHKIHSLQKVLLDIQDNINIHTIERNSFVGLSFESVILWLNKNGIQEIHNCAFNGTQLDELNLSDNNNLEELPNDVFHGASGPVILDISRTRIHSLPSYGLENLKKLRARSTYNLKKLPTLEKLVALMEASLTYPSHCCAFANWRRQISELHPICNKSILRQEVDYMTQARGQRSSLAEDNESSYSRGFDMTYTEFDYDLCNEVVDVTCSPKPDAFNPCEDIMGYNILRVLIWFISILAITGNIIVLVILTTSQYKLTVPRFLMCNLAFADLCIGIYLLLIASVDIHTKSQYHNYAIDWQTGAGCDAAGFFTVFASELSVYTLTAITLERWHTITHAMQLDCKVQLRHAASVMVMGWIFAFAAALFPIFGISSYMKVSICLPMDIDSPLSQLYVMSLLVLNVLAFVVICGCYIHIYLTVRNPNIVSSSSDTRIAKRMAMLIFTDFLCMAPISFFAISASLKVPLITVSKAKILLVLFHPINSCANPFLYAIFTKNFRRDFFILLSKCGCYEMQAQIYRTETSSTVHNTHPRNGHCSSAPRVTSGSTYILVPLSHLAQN
Kind of experiment: EC50 of cyclic AMP production in CHO FSHR cells + EC20 FSH (Assay A). The class given is cell-based. The note with it: CHO FSHR cells + EC20 FSH, cAMP HTRF; read-out: Assay A: EC50 of cyclic AMP production. In outline: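 cAMP HTRF read-out (665 nm/620 nm ratio) after 1 h at 37° C of Cho-FSHR-LUC cells treated with serially diluted test compound plus EC20 FSH ([…]) and IBMX (final 200 μM). Responses given as percent of maximal FSH-standard effect.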
(In general: TR-FRET usually uses a lanthanide donor and a delayed reading to cut background.)

Broadly, the EC50 is the concentration giving half of the maximal effect. On to `[2H]C([2H])([2H])OCC1(N(C(=O)c2nn(-c3ccsc3)c3c2COc2cc(OC)c(-c4ccnn4C)cc2-3)C([2H])([2H])[2H])COC1` [Compound 119], for which the results for the concentration for a half-maximal effect (EC50) (in experiment [1]; at FSHR) were 1000 to 5000 nM and under 100 nM, respectively.

Regarding `COc1cc2c(cc1C1=CCCC1)-c1c(c(C(=O)N(C)C(C)(C)C)nn1-c1ccsc1)CO2` [Compound 149, 8-Cyclopent-1-enyl-7-methoxy-1-thiophen-3-yl-1,4-dihydro-chromeno[4,3-c]pyrazole-3-carboxylic acid tert-butyl-methyl-amide], the EC50 is 100 to 1000 nM in experiment [1] and under 100 nM at FSHR.

For `COc1cc2c(cc1C#N)-c1c(c(C(=O)N(C)C(C)(C)C)nn1-c1ccsc1)CO2` [Compound 12, 8-Cyano-7-methoxy-1-thiophen-3-yl-1,4-dihydro-chromeno[4,3-c]pyrazole-3-carboxylic Acid tert-butyl-methyl-amide], the figures for the EC50 (in experiment [1]; on FSHR) were 1000 to 5000 nM and under 100 nM, respectively.

With `COc1cc2c(cc1C1CCCO1)-c1c(c(C(=O)N(C)C(C)(C)C)nn1-c1ccsc1)CO2` (stereo not shown) [Compound 201, 7-Methoxy-8-(tetrahydro-furan-2-yl)-1-thiophen-3-yl-1,4-dihydro-chromeno[4,3-c]pyrazole-3-carboxylic Acid tert-butyl-methyl-amide], the EC50 fell in the range of 1000 to 5000 nM in experiment [1] and 100 to 1000 nM at FSHR.

Take `COc1cc2c(cc1SCC(C)C)-c1c(c(C(=O)N3CCOCC3(C)C)nn1-c1ccsc1)CO2` [Compound 97, (3,3-Dimethyl-morpholin-4-yl)-(8-isobutylsulfanyl-7-methoxy-1-thiophen-3-yl-1,4-dihydro-chromeno[4,3-c]pyrazol-3-yl)-methanone]: the EC50 (in experiment [1]; at FSHR) was 100 to 1000 nM in each case.

As to `COc1cc2c(cc1S(=O)(=O)C(C)C)-c1c(c(C(=O)N(C)C(C)(C)C)nn1-c1ccsc1)CO2` [Compound 79, 7-methoxy-8-(propane-2-sulfonyl)-1-thiophen-3-yl-1,4-dihydro-chromeno[4,3-c]pyrazole-3-carboxylic Acid tert-butyl-methyl-amide], the EC50 in experiment [1] was over 5000 nM; at FSHR, under 100 nM.

On to `[2H]C([2H])([2H])OCC1(N(C(=O)c2nn(-c3ccsc3)c3c2COc2cc(OC)c(-c4ccn(C)c4)cc2-3)C([2H])([2H])[2H])COC1` [Compound 113], for which the EC50 is 100 to 1000 nM in experiment [1] and under 100 nM at FSHR.

Regarding `COC(=O)C1CCCN(C(=O)c2nn(-c3ccsc3)c3c2COc2cc(OC)c(OC(C)C)cc2-3)CC1` (stereo not shown) [Compound 24, 1-(8-Isopropoxy-7-methoxy-1-thiophen-3-yl-1,4-dihydro-chromeno[4,3-c]pyrazole-3-carbonyl)-azepane-4-carboxylic acid methyl ester], the EC50 in experiment [1] was 1000 to 5000 nM; on FSHR, under 100 nM.

On to `COc1cc2c(cc1-c1cnn(C(=O)OC(C)(C)C)c1)-c1c(c(C(=O)N(C)C(C)(C)C)nn1-c1ccsc1)CO2` [Compound 20, 4-[3-(tert-Butyl-methyl-carbamoyl)-7-methoxy-1-thiophen-3-yl-1,4-dihydro-chromeno[4,3-c]pyrazol-8-yl]-pyrazole-1-carboxylic acid tert-butyl ester], for which the EC50 (in experiment [1]; at FSHR) was 100 to 1000 nM each time.

In the case of `COc1cc2c(cc1-c1nc[nH]n1)-c1c(c(C(=O)N3CCOCC3(C)C)nn1-c1ccsc1)CO2` [Compound 161, (3,3-Dimethyl-morpholin-4-yl)-[7-methoxy-1-thiophen-3-yl-8-(5H-[1,2,4]triazol-3-yl)-1,4-dihydro-chromeno[4,3-c]pyrazol-3-yl]-methanone], the EC50 (in experiment [1]; on FSHR) was under 100 nM in each case.

`COc1cc2c(cc1-c1c(C)n[nH]c1C)-c1c(c(C(=O)N3CCOCC3(C)C)nn1-c1ccsc1)CO2` [Compound 126, (3,3-Dimethyl-morpholin-4-yl)-[8-(3,5-dimethyl-1H-pyrazol-4-yl)-7-methoxy-1-thiophen-3-yl-1,4-dihydro-chromeno[4,3-c]pyrazol-3-yl]-methanone]: the EC50 is 100 to 1000 nM in experiment [1] and under 100 nM on FSHR.

For `[2H]C([2H])([2H])OC1(CN(C(=O)c2nn(-c3ccsc3)c3c2COc2cc(OC)c(-c4ccn(C)n4)cc2-3)C([2H])([2H])[2H])COC1` [Compound 167], the EC50 (in experiment [1]; at FSHR) was 100 to 1000 nM in each case.

In the case of `[2H]C([2H])([2H])n1cc(-c2cc3c(cc2OC)OCc2c(C(=O)N4CCOCC4(C)C)nn(-c4ccsc4)c2-3)cn1` [Compound 96], the EC50 in experiment [1] was 100 to 1000 nM; on FSHR it was under 100 nM.

As to `COc1cc2c(cc1-c1ccc(C)s1)-c1c(c(C(=O)N(C)C(C)(C)C)nn1-c1ccsc1)CO2` [Compound 93, 7-Methoxy-8-(5-methyl-thiophen-2-yl)-1-thiophen-3-yl-1,4-dihydro-chromeno[4,3-c]pyrazole-3-carboxylic acid tert-butyl-methyl-amide], the EC50 in experiment [1] is 100 to 1000 nM; at FSHR, under 100 nM.

Take `CCCn1cc(-c2cc3c(cc2OC)OCc2c(C(=O)N4CCOCC4(C)C)nn(-c4ccsc4)c2-3)cn1` [Compound 211, (3,3-Dimethyl-morpholin-4-yl)-[7-methoxy-8-(1-propyl-1H-pyrazol-4-yl)-1-thiophen-3-yl-1,4-dihydro-chromeno[4,3-c]pyrazol-3-yl]-methanone]: the EC50 (in experiment [1]; at FSHR) was under 100 nM throughout.

With `COc1cc2c(cc1-c1cccnc1)-c1c(c(C(=O)N3CCCN(C(=O)C4CCC4)CC3)nn1-c1ccsc1)CO2` [Compound 3, (4-Cyclobutanecarbonyl-[1,4]diazepan-1-yl)-(7-methoxy-8-pyridin-3-yl-1-thiophen-3-yl-1,4-dihydro-chromeno[4,3-c]pyrazol-3-yl)-methanone], the EC50 in experiment [1] was 1000 to 5000 nM; on FSHR, under 100 nM.

As for `COc1cc2c(cc1-c1ccn(C)n1)-c1c(c(C(=O)N(C)C(C)(C)C)nn1-c1ccsc1)CO2` [Compound 63, 7-Methoxy-8-(1-methyl-1H-pyrazol-3-yl)-1-thiophen-3-yl-1,4-dihydro-chromeno[4,3-c]pyrazole-3-carboxylic acid tert-butyl-methyl-amide], the EC50 in experiment [1] was 100 to 1000 nM; on FSHR, under 100 nM.

As for `[2H]C([2H])([2H])OCC1(C)CCCN1C(=O)c1nn(-c2ccsc2)c2c1COc1cc(OC)c(-c3ccn(C)n3)cc1-2` (stereo not shown) [Compound 182], the concentration giving a half-maximal response (EC50) (in experiment [1]; at FSHR) was under 100 nM in each case.

Take `COc1cc2c(cc1C=C(C)C)-c1c(c(C(=O)NCCCN3CCOC3=O)nn1-c1ccsc1)CO2` [Compound 9, 7-Methoxy-8-(2-methyl-propenyl)-1-thiophen-3-yl-1,4-dihydro-chromeno[4,3-c]pyrazole-3-carboxylic acid [3-(2-oxo-oxazolidin-3-yl)-propyl]-amide]: the Emax at 30 µM in experiment [1] (@ 30 μM, read-out: Assay B: percental effect (response) relative to the maximum response of the FSH standard) is 40.5%. The EC50 at FSHR fell in the range of 1000 to 5000 nM.

Turning to `COc1cc2c(cc1-c1cnn(CCN3CCOCC3)c1)-c1c(c(C(=O)N3CCOCC3(C)C)nn1-c1ccsc1)CO2` [Compound 202, (3,3-Dimethyl-morpholin-4-yl)-{7-methoxy-8-[1-(2-morpholin-4-yl-ethyl)-1H-pyrazol-4-yl]-1-thiophen-3-yl-1,4-dihydro-chromeno[4,3-c]pyrazol-3-yl}-methanone], the concentration giving a half-maximal response (EC50) (in experiment [1]; at FSHR) was 100 to 1000 nM each time.

The record behind these values is US11365199B2, “Pyrazole compounds as modulators of FSHR and uses thereof” (Merck Patent GmbH, priority 2013, dated 2022).
